Measurements from patent publication US20070184135A1, “Morinda citrifolia-based formulation 5-LOX and 15-LOX” (priority 2003, published 2007).
Where “and” joins values, the source holds several entries; their conditions need not be identical. Identical values can stand only once.

Target: T1, 5-Lipoxygenase (Homo sapiens, UniProt P09917)
T1 construct: Human peripheral blood mononuclear leukocytes (PBML) were isolated through a Ficoll-Paque density gradient; endogenous in cells; host or cells: human peripheral blood mononuclear leukocytes (PBML)
T1 sequence (P09917 1-674): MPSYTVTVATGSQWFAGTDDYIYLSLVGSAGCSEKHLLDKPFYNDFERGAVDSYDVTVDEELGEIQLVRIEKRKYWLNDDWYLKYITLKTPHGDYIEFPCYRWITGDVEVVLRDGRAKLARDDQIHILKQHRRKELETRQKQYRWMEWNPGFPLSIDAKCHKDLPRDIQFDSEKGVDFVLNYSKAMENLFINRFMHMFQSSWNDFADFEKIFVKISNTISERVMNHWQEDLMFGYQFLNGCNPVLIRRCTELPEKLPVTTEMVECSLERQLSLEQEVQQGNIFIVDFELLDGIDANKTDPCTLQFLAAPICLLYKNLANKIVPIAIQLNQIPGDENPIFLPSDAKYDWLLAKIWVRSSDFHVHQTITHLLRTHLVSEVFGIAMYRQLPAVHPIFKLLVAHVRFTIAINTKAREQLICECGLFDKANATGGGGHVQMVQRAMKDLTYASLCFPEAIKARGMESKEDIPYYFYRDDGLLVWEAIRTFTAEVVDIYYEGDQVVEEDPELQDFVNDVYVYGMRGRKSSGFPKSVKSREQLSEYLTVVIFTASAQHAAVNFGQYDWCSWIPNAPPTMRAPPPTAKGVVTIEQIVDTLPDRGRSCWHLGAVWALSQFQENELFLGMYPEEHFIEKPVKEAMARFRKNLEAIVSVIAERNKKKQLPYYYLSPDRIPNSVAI
Assay: 5-Lipoxygenase inhibition in human PBML stimulated with A 23187, LTB4 measured by EIA
Assay type: cell-based
From the text: Methods employed in this example were adapted from the scientific literature to maximize reliability and reproducibility. […] 110-13 (2000).
In this study, the 5-LOX source was human peripheral blood mononuclear cells (PBMNC) and the substrate was arachidonic acid having a general reaction of: arachidonic acid→5-LOX→5-HPETE→LTB4. Human peripheral blood mononuclear leukocytes (PBML) were isolated through a Ficoll-Paque density gradient. The inhibiting agent was processed Morinda citrifolia puree juice concentrate. Morinda citrifolia was pre-incubated with PBML (5×10^6 cell/ml) in HBSS buffer pH 7.4 at 37° C. for 15 minutes. […] Following neutralization with NaOH and centrifugation, the supernatant LTB4 is measured using an EIA kit.
The supernatant sample was utilized in same assay and protocols as outlined in Example One above, wherein the brown substance obtained was substituted for Morinda citrifolia puree juice.

Product (0.03 uM): 3608.3 pg/well and 3403.4 pg/well
Product (0.1 uM): 2433.3 pg/well
Product (0.3 uM): 1083.1 pg/well and 1106.1 pg/well
Product (1 uM): 233.7 pg/well and 217.9 pg/well
Product (3 uM): 134.9 pg/well and 94.3 pg/well
Compound: CC(Cc1ccc(O)c(O)c1)C(C)Cc1ccc(O)c(O)c1 (centres unmarked) [NDGA, nordihydroguaretic acid]
